Assay results as given in US20250151724A1, “Liquid Soil Treatments Containing Choline” (Harrell's, LLC, priority 2023, published 2025).
Like-named read-outs stand apart in the source and are kept apart here.

Tested on: 'A4' creeping bentgrass
Settings: for Root Diameter / Root Length / Root Surface Area / Root Volume / Root Viability: end of trial; for Root Viability: TTC method
Description: Mature ‘A4’ creeping bentgrass plugs (4″ diameter) were harvested from field plots and transplanted into 6-inch pots filled with a USGA (United States Golf Association) specification sand mix (fine sand with 10% calcined clay). The bentgrass was maintained at 15 mm and fertilized at 0.2 lb N/1,000 ft^2 at transplanting and then 0.15 lb N/1,000 ft^2 biweekly thereafter. After about 2 months of non-stressed growth with optimum temperature, water, fertilizer, and light, the pots were placed in a controlled environment growth chamber at 95° F. day (12 h)/77° F. night (12 h), light intensity at 400 μmol m^−2 s^−1, 12 h photoperiod, and 65% RH. Water was replaced 5 times weekly at 55% of measured evapotranspiration (ET). […] Four treatments were tested with 4 replications for each treatment. The choline chloride solution at the […] listed below was applied to the canopy at 2 gallons/1,000 ft^2 and the same amount of water was applied to the control (Treatment #1).
The treatments were as follows: • 1. Fertilized control (0.15 lb. Nitrogen (N) per 1,000 ft^2 every 14 days from 28-8-18 with UMAXX® fertilizer (Harrell's LLC, Lakeland, Florida) • 2. Choline at 0.125 oz./1,000 ft^2 biweekly+0.15 lb. N/1,000 ft^2 biweekly • 3. Choline at 0.25 oz./1,000 ft^2 biweekly+0.15 lb. N/1,000 ft^2 biweekly • 4. Choline at 0.5 oz./1,000 ft^2 biweekly+0.15 lb. N/1,000 ft^2 biweekly The rate and source of fertilization for treatments #2, 3, and 4 were the same as treatment #1 (fertilized control).
The stress period of the trial lasted for 8 weeks, and there was a total of 4 treatment applications. The following measurements/data were taken at day 0, 14, 28, 42, and 56: • a. Visual leaf color was rated on a 1-9 scale, with 1 indicating brown color and 9 indicating dark green color. • b. Photochemical efficiency was measured with chlorophyll fluorometer (OS-50II, Opti-Sciences, Inc., Hudson, NH). Three readings were collected from each pot and the average was used for statistical analysis. • c. Leaf chlorophyll content and carotenoids were extracted in acetone and measured with a spectrophotometer after incubation for 72 h. • d. Leaf proline content was determined based on the method of Bates et al. 1973 and as described by Wu et al. 2017. • e. Leaf antioxidant superoxide dismutase (SOD) activity was determined based on the method as described by Zhang et al. 2015. • f. Root viability, root samples were collected at the end of the trial and TTC method was used to measure root viability as described by Zhang et al., 2017. • g. Root growth characteristics (root length, root surface area, root diameter, root length density) were determined using WinRHIZO technology. • h. Root biomass of the whole pot was measured at day 56. For leaf chlorophyll, carotenoids, proline, and superoxide dismutase (SOD) activity, fresh samples were collected every two weeks and frozen with liquid and stored at −80° C. before lab analysis.

[1] = 0.125 oz/1000 ft^2 biweekly, day 0
[2] = 0.125 oz/1000 ft^2 biweekly, day 14
[3] = 0.125 oz/1000 ft^2 biweekly, day 28
[4] = 0.125 oz/1000 ft^2 biweekly, day 42
[5] = 0.125 oz/1000 ft^2 biweekly, day 56
[6] = 0.25 oz/1000 ft^2 biweekly, day 0
[7] = 0.25 oz/1000 ft^2 biweekly, day 14
[8] = 0.25 oz/1000 ft^2 biweekly, day 28
[9] = 0.25 oz/1000 ft^2 biweekly, day 42
[10] = 0.25 oz/1000 ft^2 biweekly, day 56
[11] = 0.5 oz/1000 ft^2 biweekly, day 0
[12] = 0.5 oz/1000 ft^2 biweekly, day 14
[13] = 0.5 oz/1000 ft^2 biweekly, day 28
[14] = 0.5 oz/1000 ft^2 biweekly, day 42
[15] = 0.5 oz/1000 ft^2 biweekly, day 56

In the case of `C[N+](C)(C)CCO.[Cl-]` [Choline, choline chloride], the Carotenoids [1] is reported as 1.05a mg/g Fresh Weight, the Chlorophyll [1] is reported as 3.04a mg/g Fresh Weight and the “Leaf color (1-9, 9 = dark green)” value [1] is reported as 8.0a. The “Photochemical Efficiency (Fv/F^m)” value [1] was 0.726a, the Proline content [1] was 64.1a μg/g FW and the SOD activity [1] was 909.7a Unit/g FW. For the same molecule, the Carotenoids [2] was 0.88b mg/g Fresh Weight, the Chlorophyll [2] was 2.40c mg/g Fresh Weight and the “Leaf color (1-9, 9 = dark green)” value [2] was 7.1ab. For the same molecule, the “Photochemical Efficiency (Fv/F^m)” value [2] was 0.659a, the Proline content [2] was 170.7a μg/g FW and the SOD activity [2] was 906.4a Unit/g FW. For the same molecule, the Carotenoids [3] was 0.76c mg/g Fresh Weight, the Chlorophyll [3] was 2.16b mg/g Fresh Weight and the “Leaf color (1-9, 9 = dark green)” value [3] was 6.0b. For the same molecule, the “Photochemical Efficiency (Fv/F^m)” value [3] was 0.668a, the Proline content [3] was 156.5a μg/g FW and the SOD activity [3] was 865.7ab Unit/g FW. For the same molecule, the Carotenoids [4] was 0.69a mg/g Fresh Weight, the Chlorophyll [4] was 1.74ab mg/g Fresh Weight and the “Leaf color (1-9, 9 = dark green)” value [4] was 6.3b. The “Photochemical Efficiency (Fv/F^m)” value [4] was 0.611ab, the Proline content [4] was 156.1ab μg/g FW and the SOD activity [4] was 752.3bc Unit/g FW. The Carotenoids [5] was 0.67b mg/g Fresh Weight, the Chlorophyll [5] was 1.72ab mg/g Fresh Weight and the “Leaf color (1-9, 9 = dark green)” value [5] was 6.0b. For the same molecule, the “Photochemical Efficiency (Fv/F^m)” value [5] was 0.596ab, the Proline content [5] was 139.7b μg/g FW and the “Root Biomass” value [5] was 1.269a g/pot. For the same molecule, the SOD activity [5] was 721.2bc Unit/g FW, the “Root Diameter” value (0.125 oz/1000 ft^2 biweekly) was 0.161b mm and the “Root Length” value (0.125 oz/1000 ft^2 biweekly) was 17.7ab cm/cm^3. The “Root Surface Area” value (0.125 oz/1000 ft^2 biweekly) was 0.90ab cm^2/cm^3, the “Root Volume” value (0.125 oz/1000 ft^2 biweekly) was 3.61ab cm^3/dm^3 and the “Root Viability” value (0.125 oz/1000 ft^2 biweekly) was 0.78ab A490/g FW. The Carotenoids [6] was 1.03a mg/g Fresh Weight, the Chlorophyll [6] was 2.95a mg/g Fresh Weight and the “Leaf color (1-9, 9 = dark green)” value [6] was 8.0a. The “Photochemical Efficiency (Fv/F^m)” value [6] was 0.726a, the Proline content [6] was 63.1a μg/g FW and the SOD activity [6] was 870.8a Unit/g FW. The Carotenoids [7] was 1.02a mg/g Fresh Weight, the Chlorophyll [7] was 2.76a mg/g Fresh Weight and the “Leaf color (1-9, 9 = dark green)” value [7] was 7.4a. For the same molecule, the “Photochemical Efficiency (Fv/F^m)” value [7] was 0.672a, the Proline content [7] was 177.4a μg/g FW and the SOD activity [7] was 930.7a Unit/g FW. For the same molecule, the Carotenoids [8] was 0.94a mg/g Fresh Weight, the Chlorophyll [8] was 2.75a mg/g Fresh Weight and the “Leaf color (1-9, 9 = dark green)” value [8] was 6.6a. The “Photochemical Efficiency (Fv/F^m)” value [8] was 0.645a, the Proline content [8] was 162.3a μg/g FW and the SOD activity [8] was 885.1a Unit/g FW. The Carotenoids [9] was 0.84a mg/g Fresh Weight, the Chlorophyll [9] was 2.10ab mg/g Fresh Weight and the “Leaf color (1-9, 9 = dark green)” value [9] was 6.7a. For the same molecule, the “Photochemical Efficiency (Fv/F^m)” value [9] was 0.648a, the Proline content [9] was 169.5a μg/g FW and the SOD activity [9] was 872.3a Unit/g FW. For the same molecule, the Carotenoids [10] was 0.84a mg/g Fresh Weight, the Chlorophyll [10] was 1.99a mg/g Fresh Weight and the “Leaf color (1-9, 9 = dark green)” value [10] was 6.6a. For the same molecule, the “Photochemical Efficiency (Fv/F^m)” value [10] was 0.615a, the Proline content [10] was 267.1a μg/g FW and the “Root Biomass” value [10] was 1.273a g/pot. For the same molecule, the SOD activity [10] was 866.5a Unit/g FW, the “Root Diameter” value (0.25 oz/1000 ft^2 biweekly) was 0.170ab mm and the “Root Length” value (0.25 oz/1000 ft^2 biweekly) was 18.4a cm/cm^3. For the same molecule, the “Root Surface Area” value (0.25 oz/1000 ft^2 biweekly) was 0.98a cm^2/cm^3, the “Root Volume” value (0.25 oz/1000 ft^2 biweekly) was 4.18a cm^3/dm^3 and the “Root Viability” value (0.25 oz/1000 ft^2 biweekly) was 1.28a A490/g FW. The Carotenoids [11] was 1.07a mg/g Fresh Weight, the Chlorophyll [11] was 3.07a mg/g Fresh Weight and the “Leaf color (1-9, 9 = dark green)” value [11] was 8.0a. The “Photochemical Efficiency (Fv/F^m)” value [11] was 0.718a, the Proline content [11] was 53.5a μg/g FW and the SOD activity [11] was 878.3a Unit/g FW. For the same molecule, the Carotenoids [12] was 0.98ab mg/g Fresh Weight, the Chlorophyll [12] was 2.67ab mg/g Fresh Weight and the “Leaf color (1-9, 9 = dark green)” value [12] was 7.4a. For the same molecule, the “Photochemical Efficiency (Fv/F^m)” value [12] was 0.690a, the Proline content [12] was 180.0a μg/g FW and the SOD activity [12] was 911.1a Unit/g FW. The Carotenoids [13] was 0.91ab mg/g Fresh Weight, the Chlorophyll [13] was 2.54ab mg/g Fresh Weight and the “Leaf color (1-9, 9 = dark green)” value [13] was 6.8a. The “Photochemical Efficiency (Fv/F^m)” value [13] was 0.661a, the Proline content [13] was 167.1a μg/g FW and the SOD activity [13] was 900.7a Unit/g FW. The Carotenoids [14] was 0.84a mg/g Fresh Weight, the Chlorophyll [14] was 2.18a mg/g Fresh Weight and the “Leaf color (1-9, 9 = dark green)” value [14] was 6.9a. For the same molecule, the “Photochemical Efficiency (Fv/F^m)” value [14] was 0.659a, the Proline content [14] was 171.8a μg/g FW and the SOD activity [14] was 836.4ab Unit/g FW. For the same molecule, the Carotenoids [15] was 0.83a mg/g Fresh Weight, the Chlorophyll [15] was 2.01a mg/g Fresh Weight and the “Leaf color (1-9, 9 = dark green)” value [15] was 6.9a. For the same molecule, the “Photochemical Efficiency (Fv/F^m)” value [15] was 0.610a, the Proline content [15] was 278.0a μg/g FW and the “Root Biomass” value [15] was 1.270a g/pot. The SOD activity [15] was 815.7ab Unit/g FW, the “Root Diameter” value (0.5 oz/1000 ft^2 biweekly) was 0.176a mm and the “Root Length” value (0.5 oz/1000 ft^2 biweekly) was 18.8a cm/cm^3. The “Root Surface Area” value (0.5 oz/1000 ft^2 biweekly) was 0.99a cm^2/cm^3, the “Root Volume” value (0.5 oz/1000 ft^2 biweekly) was 4.15a cm^3/dm^3 and the “Root Viability” value (0.5 oz/1000 ft^2 biweekly) was 1.10a A490/g FW.
